The values below come from patent US20070020298A1, “Inhalant formulation containing sulfoalkyl ether gamma-cyclodextrin and corticosteroid” (priority 2003, published 2007).

Where two headings read alike, the source gives them in different places.

The nature of data set [1]: Stability of fluticasone propionate in aqueous SBE6.1-γ-CD solution by HPLC (Example 13). It counts as physicochemical. Conditions: for Stability by HPLC: 240 μg/mL in 10% SBE-γ-CD. The procedure: SBE-γ-CD is suitable for stabilizing corticosteroids in aqueous solutions. A stability study was conducted using fluticasone propionate in aqueous solutions stored at 25° C. or 40° C. having a pH of 4.5 or 6.0.
Fluticasone propionate. A citrate buffer solution at a pH of 4.5 was prepared by mixing various portions of 0.003 M citric acid with 0.003 M of trisodium citrate. A phosphate buffer solution at a pH of 6.0 was prepared by mixing various portions of 0.003 M monobasic sodium phosphate with 0.003 M of dibasic sodium phosphate. These stock solutions contained 10% w/v SBE-Gamma (D.S.=6.1). An excess of fluticasone propionate was added to the vials and equilibrated on a rocker for three days. The samples were then filtered using a PVDF 0.22 μm syringe filter. Aliquots of the solutions were placed into clear glass 2 mL serum vials with aluminum crimp caps and daikyo flurotec septums, and stored at 25° C. and 40° C. Control samples were stored at 5° C. but are not reported here. HPLC analysis of the samples was performed initially, (at time 0), and after 30, 60, 90, and 120 days storage. A stability-indicating HPLC method was used.

A short description of data set [2]: Stability of mometasone furoate in aqueous SBE6.1-γ-CD solution by HPLC (Example 13). It counts as physicochemical. Particulars: for Stability by HPLC: 240 μg/mL in […] SBE-γ-CD. How it is done: A similar study was conducted for mometasone furoate except that a pH of 3.5 or 4.5 was used.
Mometasone furoate. Citrate buffer solutions at a pH of 3.5 and 4.5 were prepared by mixing various portions of 3 mM citric acid with 3 mM sodium citrate. […] An excess of mometasone furoate was added to the vials and equilibrated on a rocker for three days. The samples were then filtered using a PVDF 0.22 μm syringe filter. Aliquots of the solutions were placed into serum vials with rubber stoppers and aluminum crimp seal caps, and stored at 25° C. and 40° C. Control samples were stored at 5° C. […] A stability-indicating HPLC method was used.

For data set [3] the following is noted: nasal spray in aqueous sulfobutylether-β-cyclodextrin buffer, healthy volunteers; cited from earlier work.
The conditions of data set [4]: during the time period of observation, concentrations typically used to solubilize pharmaceutical formulations; cited from earlier work.

Regarding `CCC(=O)O[C@]1(C(=O)CO)[C@@H](C)C[C@H]2[C@@H]3CCC4=CC(=O)C=C[C@]4(C)[C@@]3(Cl)[C@@H](O)C[C@@]21C` [Beclomethasone 17-monopropionate, beclomethasone 17-monopropionate], the “Solubility of beclomethasone form” value is on record as 0.04 M → 10621.6 μg/mL (0.04 M SBE3.4 γ-CD); 0.04 M → 9500.8 μg/mL (0.04 M SBE5.24 γ-CD); 0.04 M → 11666.9 μg/mL (0.04 M SBE6.1 γ-CD); 0.04 M → 6799.6 μg/mL (0.04 M SBE6.7 β-CD); 0.04 M → 8539.1 μg/mL (0.04 M SBE7.5 γ-CD); 0.04 M → 136.9 μg/mL (0.04 M γ-CD).
On to `CCC(=O)OCC(=O)[C@@]1(O)[C@@H](C)C[C@H]2[C@@H]3CCC4=CC(=O)C=C[C@]4(C)[C@@]3(Cl)[C@@H](O)C[C@@]21C` [Beclomethasone 21-monopropionate, beclomethasone 21-monopropionate], for which the “Solubility of beclomethasone form” value by setting is: (0.04 M SBE3.4 γ-CD) 0.04 M → 172.6 μg/mL; (0.04 M SBE5.24 γ-CD) 0.04 M → 139.8 μg/mL; (0.04 M SBE6.1 γ-CD) 0.04 M → 153.8 μg/mL; (0.04 M SBE6.7 β-CD) 0.04 M → 50.6 μg/mL; (0.04 M SBE7.5 γ-CD) 0.04 M → 122.4 μg/mL; (0.04 M γ-CD) 0.04 M → 9.4 μg/mL.
For `CCC(=O)O[C@]1(C(=O)SCF)[C@H](C)C[C@H]2[C@@H]3C[C@H](F)C4=CC(=O)C=C[C@]4(C)[C@@]3(F)[C@@H](O)C[C@@]21C` [Fluticasone propionate, fluticasone propionate], the “Stability by HPLC” value is 97.88 Area % in data set [1] (pH = 4.5/25° C., 1 Month); 98.15 Area % in data set [1] (pH = 4.5/25° C., 2 Months); 97.74 Area % in data set [1] (pH = 4.5/25° C., 3 Months); 97.36 Area % in data set [1] (pH = 4.5/25° C., 4 Months); 97.99 Area % in data set [1] (pH = 4.5/25° C., Initial); 97.46 Area % in data set [1] (pH = 4.5/40° C., 1 Month). Moreover, the “Stability by HPLC” value was 97.75 Area % in data set [1] (pH = 4.5/40° C., 2 Months); 97.41 Area % in data set [1] (pH = 4.5/40° C., 3 Months); 96.56 Area % in data set [1] (pH = 4.5/40° C., 4 Months); 97.84 Area % in data set [1] (pH = 4.5/40° C., Initial). Moreover, the “change in the amount of fluticasone propionate” value in data set [1] (after a period of 4 months in SBE-γ-CD solution) is listed as “little to no change”. Moreover, the T90 result in data set [1] (at both pHs (4.5 and 6.0)) was “greater than five years”. In data set [1] (fluticasone propionate formulation of the invention), the estimated shelf-life entry is reported as “greater than two years”.
On to `C[C@@H]1C[C@H]2[C@@H]3CCC4=CC(=O)C=C[C@]4(C)[C@@]3(Cl)[C@@H](O)C[C@]2(C)[C@@]1(OC(=O)c1ccco1)C(=O)CCl` [Mometasone furoate, mometasone furoate], for which the “Stability by HPLC” value stood at 99.74 Area % in data set [2] (pH = 3.5/25° C., 1 Month); 99.82 Area % in data set [2] (pH = 3.5/25° C., 1 Week); 99.73 Area % in data set [2] (pH = 3.5/25° C., 2 Months); 99.79 Area % in data set [2] (pH = 3.5/25° C., 2 Weeks); 99.68 Area % in data set [2] (pH = 3.5/25° C., 3 Months); 99.36 Area % in data set [2] (pH = 3.5/25° C., 6 Months). The “Stability by HPLC” value in data set [2] (pH = 3.5/25° C., Initial) amounted to 99.72 Area %; in data set [2] (pH = 3.5/40° C., 1 Month), 99.10 Area %; in data set [2] (pH = 3.5/40° C., 1 Week) it was 99.72 Area %; in data set [2] (pH = 3.5/40° C., 2 Months) it was 98.56 Area %; in data set [2] (pH = 3.5/40° C., 2 Weeks) it was 99.55 Area %; in data set [2] (pH = 3.5/40° C., 3 Months), 97.97 Area %. The “Stability by HPLC” value is 94.97 Area % in data set [2] (pH = 3.5/40° C., 6 Months); 99.72 Area % in data set [2] (pH = 3.5/40° C., Initial); 99.19 Area % in data set [2] (pH = 4.5/40° C., 1 Month); 99.72 Area % in data set [2] (pH = 4.5/40° C., 1 Week); 98.65 Area % in data set [2] (pH = 4.5/40° C., 2 Months); 99.57 Area % in data set [2] (pH = 4.5/40° C., 2 Weeks). For the same compound, the “Stability by HPLC” value in data set [2] (pH = 4.5/40° C., 3 Months) is 97.85 Area %; in data set [2] (pH = 4.5/40° C., 6 Months), 96.01 Area %; in data set [2] (pH = 4.5/40° C., Initial), 99.76 Area %; in data set [2] (pH = 4.5 @ 25° C., 1 Month) it was 99.73 Area %; in data set [2] (pH = 4.5 @ 25° C., 1 Week) it was 99.82 Area %; in data set [2] (pH = 4.5 @ 25° C., 2 Months), 99.71 Area %. Besides, the “Stability by HPLC” value in data set [2] (pH = 4.5 @ 25° C., 2 Weeks) was found to be 99.81 Area %; in data set [2] (pH = 4.5 @ 25° C., 3 Months), 99.62 Area %; in data set [2] (pH = 4.5 @ 25° C., 6 Months), 99.47 Area %; in data set [2] (pH = 4.5 @ 25° C., Initial), 99.76 Area %. Besides, the T90 result in data set [2] (both pH's (3.5 and 4.5) at 25° C.) was “exceed two years”. In addition, in data set [2] (mometasone furoate formulation of the invention), the estimated shelf-life result was “greater than two years”. In data set [2] (pH 4.5, 25° C.), the “T90, stable for” value was “six to eight years”.
On to `Cc1ncc2n1-c1ccc(Cl)cc1C(c1ccccc1F)=NC2` [midazolam], for which, in data set [3], the side effects result was “No serious side effects”.
For the compound “Sulfobutyl ether β-cyclodextrin [CAPTISOL]”, the hemolytic behavior entry in data set [4] is given as “essentially no hemolytic behavior”.
